Data: ChEMBL document CHEMBL1201862, “PubChem BioAssay data set” (2004)
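Growth conditions: 96-well plates. Treatment: test compound, 48 hours, 5 concentrations. Analysis: linear interpolation between bracketing concentrations; unreached endpoints set to highest concentration. Abbreviation: GI50, concentration required for 50% inhibition of growth.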 Active and inactive are the calls of the source. No stated cut-off is given here; in the data, active = GI50 up to about 1.1 µM and inactive = higher.

Assays:
Experiment in all cases: NCI-60 cell line screen, 48 h
UACC-62 = system: UACC-62
HOP-18 = system: HOP-18
DMS-273 = system: DMS-273
Malme-3M = system: Malme-3M
SN12C = system: SN12C
K562 = system: K562
HL-60 = system: HL-60
CAKI-1 = system: CAKI-1
HCC 2998 = system: HCC 2998
SK-OV-3 = system: SK-OV-3
786-0 = system: 786-0
NCI-H522 = system: NCI-H522
DLD-1 = system: DLD-1
CCRF-CEM = system: CCRF-CEM
RPMI-8226 = system: RPMI-8226
RXF 631 = system: RXF 631
M14 = system: M14
XF498 = system: XF498
KM-20L2 = system: KM-20L2
SK-MEL-2 = system: SK-MEL-2
SNB-19 = system: SNB-19
HOP-92 = system: HOP-92
SNB-75 = system: SNB-75
A498 = system: A498
M19-MEL = system: M19-MEL
UACC-257 = system: UACC-257
RXF 393 = system: RXF 393
SF-268 = system: SF-268
OVCAR-5 = system: OVCAR-5
ACHN = system: ACHN
MOLT-4 = system: MOLT-4
U-251 = system: U-251
NCI-H23 = system: NCI-H23
OVCAR-4 = system: OVCAR-4
SK-MEL-28 = system: SK-MEL-28
SF-539 = system: SF-539
IGROV-1 = system: IGROV-1
LXFL 529 = system: LXFL 529
HT-29 = system: HT-29
NCI-H460 = system: NCI-H460
UO-31 = system: UO-31
HCT-15 = system: HCT-15
LOX IMVI = system: LOX IMVI
COLO 205 = system: COLO 205
DMS-114 = system: DMS-114
NCI-H226 = system: NCI-H226
OVCAR-8 = system: OVCAR-8
A549 = system: A549
OVCAR-3 = system: OVCAR-3
HOP-62 = system: HOP-62
TK-10 = system: TK-10
SK-MEL-5 = system: SK-MEL-5
HCT-116 = system: HCT-116
EKVX = system: EKVX
SW-620 = system: SW-620
KM12 = system: KM12
SR = system: SR
SF-295 = system: SF-295

Measured: GI50

O=C(O)[C@@H](NS(=O)(=O)c1ccc2ccccc2c1)c1ccccc1
inactive: UACC-62 > 100 µM | HOP-18 > 100 µM | DMS-273 > 100 µM | Malme-3M > 100 µM | SN12C > 100 µM | K562 > 100 µM | HL-60 > 100 µM | CAKI-1 > 100 µM | HCC 2998 > 100 µM | SK-OV-3 > 100 µM | 786-0 > 100 µM | NCI-H522 > 100 µM | DLD-1 > 100 µM | CCRF-CEM > 100 µM | RPMI-8226 > 100 µM | RXF 631 > 100 µM | M14 > 100 µM | XF498 75.5 µM | KM-20L2 > 100 µM | SK-MEL-2 > 100 µM | SNB-19 > 100 µM | HOP-92 > 100 µM | SNB-75 > 100 µM | A498 > 100 µM | M19-MEL > 100 µM | UACC-257 > 100 µM | RXF 393 > 100 µM | SF-268 > 100 µM | OVCAR-5 > 100 µM | ACHN > 100 µM | MOLT-4 > 100 µM | U-251 > 100 µM | NCI-H23 > 100 µM | OVCAR-4 > 100 µM | SK-MEL-28 > 100 µM | SF-539 > 100 µM | IGROV-1 > 100 µM | LXFL 529 > 100 µM | HT-29 > 100 µM | NCI-H460 > 100 µM | UO-31 > 100 µM | LOX IMVI > 100 µM | COLO 205 > 100 µM
> 100 µM: HCT-15

CN/C=C(/c1ccc(OC)cc1)C(O)c1ccc(OC)c(OC)c1 (centres undefined)
inactive: UACC-62 > 100 µM | DMS-114 > 100 µM | HOP-18 > 100 µM | NCI-H226 > 100 µM | DMS-273 > 100 µM | Malme-3M > 100 µM | SN12C > 100 µM | K562 > 100 µM | HL-60 > 100 µM | HCC 2998 > 100 µM | SK-OV-3 > 100 µM | 786-0 > 100 µM | NCI-H522 > 100 µM | DLD-1 > 100 µM | CCRF-CEM > 100 µM | RPMI-8226 > 100 µM | RXF 631 > 100 µM | OVCAR-8 > 100 µM | M14 > 100 µM | XF498 > 100 µM | KM-20L2 > 100 µM | A549 > 100 µM | SK-MEL-2 > 100 µM | OVCAR-3 > 100 µM | HOP-62 > 100 µM | SNB-19 > 100 µM | HOP-92 > 100 µM | SNB-75 69.8 µM | TK-10 > 100 µM | SK-MEL-5 > 100 µM | HCT-116 > 100 µM | A498 > 100 µM | M19-MEL > 100 µM | UACC-257 > 100 µM | RXF 393 > 100 µM | EKVX > 100 µM | OVCAR-5 > 100 µM | ACHN > 100 µM | MOLT-4 > 100 µM | SW-620 > 100 µM | U-251 > 100 µM | NCI-H23 > 100 µM | OVCAR-4 > 100 µM | SK-MEL-28 > 100 µM | KM12 > 100 µM | SF-539 > 100 µM | IGROV-1 > 100 µM | HT-29 > 100 µM | NCI-H460 > 100 µM | UO-31 > 100 µM | SR > 100 µM | SF-295 > 100 µM | LOX IMVI > 100 µM | COLO 205 > 100 µM
> 100 µM: HCT-15
